From patent US9617289B2, “RSV antiviral compounds” (JANSSEN R&D IRELAND, priority 2012, dated 2017)
pEC50: −log10 of the molar value.

Test system: rgRSV224 virus
Assay: Antiviral activity: inhibition of rgRSV224 (GFP-expressing RSV) replication in HeLa cells
Type: cell-based, respiratory syncytial virus
Settings: human respiratory syncytial virus, HeLa, 72 h, read-out: RSV-wt_pEC50
Procedure, shortened: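 HeLa cells infected with GFP-expressing rgRSV224 at MOI 0.02 alongside 4-fold compound dilutions in duplicate (0.5% DMSO). Incubated 3 days at 37 °C; EC50 taken as 50% inhibition of GFP expression by laser microscopy. CC50 measured in parallel uninfected cells by ATP content after 3 days; SI = CC50/EC50.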

SMILES | pEC50
CCOP(=O)(OCC)N1CCC2(CC1)C(=O)N(Cc1nc3cc(Cl)ccc3n1CCCC#N)c1cnccc12 [Compound 115, Diethyl (1′-{[5-chloro-1-(3-cyanopropyl)-1H-benzimidazol-2-yl]methyl}-2′-oxo-1′,2′-dihydro-1H-spiro[piperidine-4,3′-pyrrolo[2,3-c]pyridin]-1-yl)phosphonate] | 10.16

Same assay, conditions: human respiratory syncytial virus, HeLa, 72 h, read-out: RSV-wt_pEC50, rgRSV224 (MOI=0.02) in HeLa cells, GFP expression three days post-virus exposure

SMILES | pEC50
CC(=O)NS(=O)(=O)N1CCC2(CC1)C(=O)N(Cc1nc3cc(Cl)ccc3n1CCCC#N)c1cnccc12 [Compound 95, N-[(1′-{[5-Chloro-1-(3-cyanopropyl)-1H-benzimidazol-2-yl]methyl}-2′-oxo-1′,2′-dihydro-1H-spiro[piperidine-4,3′-pyrrolo[2,3-c]pyridin]-1-yl)sulfonyl]acetamide] | 10.10
N#CCCCn1c(CN2C(=O)C3(CCN(S(=O)(=O)c4cccs4)CC3)c3ccncc32)cc2cc(Cl)ccc21 [Compound 96, 4-(5-Chloro-2-{[2′-oxo-1-(thiophen-2-ylsulfonyl)spiro-[piperidine-4,3′-pyrrolo[2,3-c]pyridin]-1′(2′H)-yl]methyl}-1H-indol-1-yl)butanenitrile] | 9.37
CC(C)CCn1c(CN2C(=O)C3(CCN(C(=O)OC(C)(C)C)CC3)c3ccncc32)cc2cnccc21 [Compound 97, tert-Butyl 1′-{[1-(3-methylbutyl)-1H-pyrrolo[3,2-c]pyridin-2-yl]methyl}-2′-oxo-1,2′-dihydro-1H-spiro[piperidine-4,3′-pyrrolo[2,3-c]pyridine]-1-carboxylate] | 8.84
COC(=O)N1CCC2(CC1)C(=O)N(Cc1nc3cc(Cl)ccc3n1CCCC#N)c1cnccc12 [Compound 98, Methyl 1′-{[5-chloro-1-(3-cyanopropyl)-1H-benzimidazol-2-yl]methyl}-2′-oxo-1′,2′-dihydro-1H-spiro[piperidine-4,3′-pyrrolo[2,3-c]pyridine]-1-carboxylate] | 10.17
CC(C)OC(=O)N1CCC2(CC1)C(=O)N(Cc1nc3cc(Cl)ccc3n1CCCC#N)c1cnccc12 [Compound 99, 1-Methylethyl 1′-{[5-chloro-1-(3-cyanopropyl)-1H-benzimidazol-2-yl]methyl}-2′-oxo-1′,2′-dihydro-1H-spiro[piperidine-4,3′-pyrrolo[2,3-c]pyridine]-1-carboxylate] | 10.62
NC(=O)CCCn1c(CN2C(=O)C3(CNC3)c3ccccc32)nc2cc(Cl)ccc21 [Compound 100, 4-{5-Chloro-2-[(2′-oxospiro[azetidine-3,3′-indol]-1′(2′H)-yl)methyl]-1H-benzimidazol-1-yl}butanamide] | 6.58
N#CCCCn1c(CN2C(=O)C3(CNC3)c3ccccc32)nc2cc(Cl)ccc21 [Compound 101, 4-{5-Chloro-2-[(2′-oxospiro[azetidine-3,3′-indol]-1′(2′H)-yl)methyl]-1H-benzimidazol-1-yl}butanenitrile] | 9.05
N#CCCCn1c(CN2C(=O)C3(CCN(C(=O)OC4CCC4)CC3)c3ccncc32)cc2cc(Cl)ccc21 [Compound 103, Cyclobutyl 1′-{[5-chloro-1-(3-cyanopropyl)-1H-indol-2-yl]-methyl}-2′-oxo-1′,2′-dihydro-1H-spiro[piperidine-4,3′-pyrrolo[2,3-c]pyridine]-1-carboxylate] | 9.58
CC(C)(O)C(=O)N1CCC2(CC1)C(=O)N(Cc1cc3cc(Cl)ccc3n1CCCCF)c1cnccc12 [Compound 106, 1′-{[5-Chloro-1-(4-fluorobutyl)-1H-indol-2-yl]methyl}-1-(2-hydroxy-2-methylpropanoyl)spiro[piperidine-4,3′-pyrrolo-[2,3-c]pyridin]-2′(1′H)-one] | 9.62
CC(C)(O)C(=O)N1CCC2(CC1)C(=O)N(Cc1nc3cc(Cl)ccc3n1CCCC#N)c1cnccc12 [Compound 107, 4-(5-Chloro-2-{[1-(2-hydroxy-2-methylpropanoyl)-2′-oxo-spiro[piperidine-4,3′-pyrrolo[2,3-c]pyridin]-1′(2′H)-yl]-methyl}-1H-benzimidazol-1-yl)butanenitrile] | 10.10
N#CCCCn1c(CN2C(=O)C3(CCS(=O)(=O)CC3)c3ccncc32)nc2cc(Cl)ccc21 [Compound 108, 4-{5-Chloro-2-[(1′,1′-dioxido-2-oxo-2′,3′,5′,6′,-tetrahydro-spiro[pyrrolo[2,3-c]pyridine-3,4′-thiopyran]-1(2H)-yl)-methyl]-1H-benzimidazol-1-yl}butanenitrile] | 9.06
N#CCCCn1c(CN2C(=O)C3(CC(O)C3)c3ccccc32)nc2cc(Cl)ccc21 (stereo not drawn) [Compound 109, 4-{5-Chloro-2-[(3-hydroxy-2′-oxospiro[cyclobutane-1,3′-indol]-1′(2′H)-yl)methyl]-1H-benzimidazol-1-yl}butanenitrile] | 9.72
N#CCCCn1c(COC2CC3(C2)C(=O)N(Cc2nc4cc(Cl)ccc4n2CCCC#N)c2ccccc23)nc2cc(Cl)ccc21 [Compound 110, 4-(5-chloro-2-(((1S,3S)-1′-((5-chloro-1-(3-cyanopropyl)-1H-benzo[d]imidazol-2-yl)methyl)-2′-oxospiro[cyclobutane-1,3′-indoline]-3-yloxy)methyl)-1H-benzo[d]imidazol-1-yl)butanenitrile] | 8.84
NS(=O)(=O)N1CCC2(CC1)C(=O)N(Cc1cc3cc(Cl)ccc3n1CCCCF)c1cnccc12 [Compound 111, 1′-{[5-Chloro-1-(4-fluorobutyl)-1H-indol-2-yl]methyl}-2′-oxo-1′,2′-dihydro-1H-spiro[piperidine-4,3′-pyrrolo[2,3-c]-pyridine]-1-sulfonamide] | 9.91
N#CCCCn1c(CN2C(=O)C3(CCN(S(=O)(=O)C4CC4)CC3)c3ccncc32)nc2cc(Cl)ccc21 [Compound 112, 4-(5-Chloro-2-{[1-(cyclopropylsulfonyl)-2′-oxospiro-[piperidine-4,3′-pyrrolo[2,3-c]pyridin]-1′(2′H)-yl]methyl}-1H-benzimidazol-1-yl)butanenitrile] | 10.60
CC(C)(C)OC(=O)N1CCC2(CC1)C(=O)N(Cc1cc3ccccc3n1CCCC(F)(F)F)c1cnccc12 [Compound 113, tert-Butyl 2′-oxo-1′-{[1-(4,4,4-trifluorobutyl)-1H-indol-2-yl]methyl}-1′,2′-dihydro-1H-spiro[piperidine-4,3′-pyrrolo[2,3-c]pyridine]-1-carboxylate] | 7.18
CC(O)(C(=O)N1CCC2(CC1)C(=O)N(Cc1nc3cc(Cl)ccc3n1CCCC#N)c1cnccc12)C(F)(F)F (stereo not drawn) [Compound 116, 4-(5-Chloro-2-{[2′-oxo-1-(3,3,3-trifluoro-2-hydroxy-2-methylpropanoyl)spiro[piperidine-4,3′-pyrrolo[2,3-c]pyridin]-1′(2′H)-yl]methyl}-1H-benzimidazol-1-yl)butanenitrile] | 10.15
CNC(=O)O[C@H]1C[C@@]2(C1)C(=O)N(Cc1cc3cc(Cl)ccc3n1CCCCF)c1ccccc12 [Compound 120, (1r,3r)-1′-((5-chloro-1-(4-fluorobutyl)-1H-indol-2-yl)methyl)-2′-oxospiro[cyclobutane-1,3′-indolin]-3-yl methylcarbamate] | 8.62
CC(C)(O)C(=O)N1CC[C@@]2(C1)C(=O)N(Cc1nc3cc(Cl)ccc3n1CCCS(C)(=O)=O)c1ccccc12 [Compound 121, (R)-1-({5-Chloro-1-[3-(methylsulfonyl)propyl]-1H-benzimidazol-2-yl}methyl)-1′-(2-hydroxy-2-methylpropanoyl)spiro[indole-3,3′-pyrrolidin]-2(1H)-one] | 8.07
CC(C)(O)C(=O)N1CC[C@]2(C1)C(=O)N(Cc1nc3cc(Cl)ccc3n1CCCS(C)(=O)=O)c1ccccc12 [Compound 122, (S)-1-((5-chloro-1-(3-(methylsulfonyl)propyl)-1H-benzo[d]imidazol-2-yl)methyl)-1′-(2-hydroxy-2-methylpropanoyl)spiro[indoline-3,3′-pyrrolidin]-2-one] | 8.08
CNC(=O)O[C@H]1C[C@@]2(C1)C(=O)N(Cc1cc3cc(Cl)ccc3n1CCCC#N)c1ccccc12 [Compound 123, (1r,3r)-1′-((5-chloro)-1-(3-cyanopropyl)-1H-indol-2-yl)methyl)-2′-oxospiro[cyclobutane-1,3′-indolin]-3-yl methylcarbamate] | 9.47
N#CCCCn1c(CN2c3ccccc3[C@]3(C[C@H](NC(=O)OC4CC4)C3)C2=O)nc2cc(Cl)ccc21 [Compound 125, cyclopropyl ((1s,3s)-1′-((5-chloro-1-(3-cyanopropyl)-1H-benzo[d]imidazol-2-yl)methyl)-2′-oxospiro[cyclobutane-1,3′-indolin]-3-yl)carbamate] | 9.54
N#CCCCn1c(CN2c3ccccc3[C@]3(C[C@@H](NC(=O)OC4CC4)C3)C2=O)nc2cc(Cl)ccc21 [Compound 126, cyclopropyl ((1r,3r)-1-((5-chloro-1-(3-cyanopropyl)-1H-benzo[d]imidazol-2-yl)methyl)-2′-oxospiro[cyclobutane-1,3′-indolin]-3-yl)carbamate] | 9.59
N#CCCCn1c(CN2C(=O)C3(CN(C(=O)[C@H](O)CO)C3)c3ccccc32)cc2cc(Cl)ccc21 [Compound 131, (R)-4-(5-chloro-2-((1-(2,3-dihydroxypropanoyl)-2′-oxospiro[azetidine-3,3′-indolin]-1′-yl)methyl)-1H-indol-1-yl)butanenitrile] | 9.37
N#CCCCn1c(CN2C(=O)C3(CCN(C(=O)OC4CC4)CC3)c3ccncc32)cc2cc(Cl)ccc21 [Compound 132, Cyclopropyl 1′-{[5-chloro-1-(3-cyanopropyl)-1H-indol-2-yl]methyl}-2′-oxo-1′,2′-dihydro-1H-spiro[piperidine-4,3′-pyrrolo[2,3-c]pyridine]-1-carboxylate] | 10.19
CS(=O)(=O)CCCn1c(CN2c3ccccc3[C@]3(C[C@@H](OC(=O)N4CCOCC4)C3)C2=O)nc2cc(Cl)ccc21 [Compound 133, (1r,3r)-1′-((5-chloro-1-(3-(methylsulfonyl)propyl)-1H-benzo[d]imidazol-2-yl)methyl)-2′-oxospiro[cyclobutane-1,3′-indolin]-3-yl morpholine-4-carboxylate] | 9.85
